Experimental findings from patent US10912786B2, “Silyl monomers capable of multimerizing in an aqueous solution, and methods of using same” (Cornell University, priority 2011, dated 2021) are described below.

Series [1] addresses T1, recombinant human tryptase, beta, from lung (Homo sapiens, UniProt P20231).
T1 construct: purchased Promega or Enzo Life Sciences G5631 or BML-SE418
The experiment in a line: Evaluation of inhibition of tryptase activity (Boc-Gln-Ala-Arg-AMC fluorescence). The format is biochemical. To be noted: exemplary silyl monomers; 1 nM tryptase; read-out: IC50 range. As for the experimental part:
Stock solutions of recombinant human tryptase, beta, from lung (Promega: catalog number G5631, or Enzo Life Sciences: catalog number BML-SE418) were made at 30 μM, in solution with 50 μM heparin sulfate and 500 mM NaCl. Multimer tryptase inhibitor stock solutions were made at 50 mM in DMSO. Drug plates were made at 5× the final concentration in assay buffer (50 mM HEPES, 150 mM NaCl, 100 μM EDTA, pH 7.4, 0.02% Tween-20). A final concentration of 1 nM tryptase was used. When required, drugs were diluted in assay buffer immediately before use in 10-fold serial dilutions. […] The release of fluorescent AMC was immediately measured every 60 seconds over 30-60 minutes at an excitation wavelength of 367 nm, monitoring emission at 468 nm on a Spectramax M5 (Molecular Devices) microplate reader. The Softmax Pro (Molecular Devices) and Graphpad prism software were used to determine Vmax, and concentration-response curve IC50s, respectively. As indicated below, IC50 ranges are provided for various exemplary monomers.

Series [2] is described as follows: Hydrolysis of disiloxane to silanol followed by NMR. Type of series: physicochemical. To be noted: expected from the effect of alkyl group size on silyl ether hydrolysis. The source says: Without wishing to be bound by any theory, the estimated half-life for hydrolysis of the disiloxane depicted here:
[drawing 18] is 15 days based at pH5 in 90% DMSO/10% water at room temperature based upon NMR experiments. […] Thus in certain aqueous situations, the hydrolysis of the dimeric disiloxane to monomeric silanol may be essentially irreversible on the timescale relevant for the biological functions they are modulating.

T1 sequence (P20231 31-275): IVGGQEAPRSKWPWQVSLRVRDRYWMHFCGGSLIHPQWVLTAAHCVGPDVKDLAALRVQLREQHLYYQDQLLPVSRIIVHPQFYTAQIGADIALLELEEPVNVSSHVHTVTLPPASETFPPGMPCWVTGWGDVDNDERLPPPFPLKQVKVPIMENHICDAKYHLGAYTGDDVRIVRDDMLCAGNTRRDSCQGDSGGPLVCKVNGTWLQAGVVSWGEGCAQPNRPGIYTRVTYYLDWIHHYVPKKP

As to `C[Si](C)(O)c1cccc(-c2cccc(C(=O)N3CCC(c4cccc(CN)c4)CC3)c2)c1` [T35 Silyl], the IC50 (usually the concentration at which inhibition is half-maximal) in series [1] was in the range of 10000 to 65000 nM.
Take `C[Si](C)(O)c1ccc2cccc(C(=O)N3CCC(c4cccc(CN)c4)CC3)c2c1` [Target T11SILYL]: in series [1], the IC50 was in the range of 0.1 to 1000 nM.
For `C[Si](C)(O)c1cccc2[nH]c(C(=O)N3CCC(c4cccc(CN)c4)CC3)cc12` [Target T32Silyl], in series [1], the IC50 lay within 10000 to 65000 nM.
As to `C[Si](C)(O[Si](C)(C)c1cccc2sc(C(=O)N3CCC(c4cccc(CN)c4)CC3)cc12)c1cccc2sc(C(=O)N3CCC(c4cccc(CN)c4)CC3)cc12` [Target T46], the IC50 in series [1] fell in the range of 0.1 to 1000 nM.
For `C[Si](C)(O[Si](C)(C)c1cccc(CC(=O)N2CCC(c3cccc(CN)c3)CC2)c1)c1cccc(CC(=O)N2CCC(c3cccc(CN)c3)CC2)c1` [Target T47], in series [1], the IC50 lay within 0.1 to 1000 nM.
With `C[Si](C)(/C=C/c1cccc(CC(=O)N2CCC(c3cccc(CN)c3)CC2)c1)O[Si](C)(C)/C=C/c1cccc(CC(=O)N2CCC(c3cccc(CN)c3)CC2)c1` [Target T47vinyl], the IC50 in series [1] fell in the range of 1000 to 10000 nM.
Same read-out and setting: the value for `C[Si](C)(O[Si](C)(C)c1ccc(CC(=O)N2CCC(c3cccc(CN)c3)CC2)cc1)c1ccc(CC(=O)N2CCC(c3cccc(CN)c3)CC2)cc1` [Target T48] was 1000 to 10000 nM; that for `C[Si](C)(O[Si](C)(C)c1cc2c(C(=O)N3CCC(c4cccc(CN)c4)CC3)cccc2s1)c1cc2c(C(=O)N3CCC(c4cccc(CN)c4)CC3)cccc2s1` [Target T49] was 0.1 to 1000 nM; that for `C[Si](C)(O)c1cccc2ccc(C(=O)N3CCC4(CC3)COc3ccc(CN)cc34)cc12` [Target T52SPIRO] was 0.1 to 1000 nM.
Consider `C[Si](C)(O)c1cccc2ccc(C(=O)N3CCC(c4cccc(CN)c4)CC3)cc12` [Target T52], for which the IC50 in series [1] lay in the range of 0.1 to 1000 nM.
Same read-out and setting: the figure for `C[Si](C)(O)c1cccc2cc(C(=O)N3CCC(c4cc(CN)ccc4F)CC3)ccc12` [Target T120F] is 0.1 to 1000 nM; for `C[Si](C)(O)Cc1cccc(C(=O)N2CCC(c3cccc(CN)c3)CC2)c1` [Target T122] it is 1000 to 10000 nM.
Take `C[Si](C)(O)c1cccc(C(=O)N2CCC3(CC2)COc2ccc(CN)cc23)c1` [Target T129SPIRO]: the IC50 in series [1] fell in the range of 0.1 to 1000 nM.
Same read-out and setting: the value for `CSc1cc(C(=O)N2CCC(c3cccc(CN)c3)CC2)cc([Si](C)(C)O)c1` [Target T129Smethyl] was 0.1 to 1000 nM; that for `C[Si](C)(O)c1cccc(C(=O)N2CCC(c3cccc(CN)c3)CC2)c1` [Target T129] was 0.1 to 1000 nM; that for `C[Si](C)(O)c1ccc(C(=O)N2CCC(c3cccc(CN)c3)CC2)cc1` [Target T130] was 0.1 to 1000 nM.
In the case of `C[Si](C)(O)COc1ccc(C(=O)N2CCC(c3cccc(CN)c3)CC2)cc1` [Target T137, (4-(3-(aminomethyl)phenyl)piperidin-1-yl)(4-((hydroxydimethylsilyl)methoxy)-phenyl)methanone], the half-maximal inhibitory concentration (IC50) in series [1] was in the range of 0.1 to 1000 nM.
On the same count and under the same terms, the figure for `C[Si](C)(O)COc1cccc(C(=O)N2CCC(c3cccc(CN)c3)CC2)c1` [Target T138, (4-(3-(aminomethyl)phenyl)-piperidin-1-yl)(3-((hydroxydimethylsilyl)-methoxy)phenyl)methanone] is 0.1 to 1000 nM.
With `C[Si](C)(O)c1coc2ccc(C(=O)N3CCC(c4cccc(CN)c4)CC3)cc12` [Target T148], the IC50 in series [1] is 0.1 to 1000 nM.
On to `C[Si](C)(O)c1csc2ccc(C(=O)N3CCC(c4cccc(CN)c4)CC3)cc12` [Target T149], for which, in series [1], the IC50 was in the range of 1000 to 10000 nM.
For the compound `Cn1cc(C(=O)N2CCC(c3cccc(CN)c3)CC2)c2ccc([Si](C)(C)O)cc21` [Target T152NMethyl], the IC50 in series [1] was 10000 to 65000 nM.
In the case of `C[Si](C)(O)c1ccc2c(C(=O)N3CCC(c4cccc(CN)c4)CC3)c[nH]c2c1` [Target T152], the IC50 in series [1] lay in the range of 10000 to 65000 nM.
Consider `CC[Si](CC)(O[Si](CC)(CC)c1ccccc1)c1ccccc1` [diphenyltetraethyldisiloxane], for which the “half-life of hydrolysis relative to the depicted disiloxane” value in series [2] is recorded as “more than ten fold longer”.
